From PubChem BioAssay AID1963972 (Molecular Pharmacology Branch, DTP, NCI, 2024)

Tested on: 945468-187-T-J2-PDC spheroids viability
Assay: Anticancer human tumor 945468-187-T-J2-PDC patient-derived rectal carcinoma cell line growth inhibition [PI3K]
Conditions: spheroids with HUVEC and MSC; for IC50: curve of first compound; for viability, T/C: stronger effect = lower value
Source text: Combinatorial screen of targeted agents with the PI3K inhibitors inavolisib, alpelisib, duvelisib, and copanlisib in multi-cell type tumor spheroids
A high-throughput screen of multi-cell type tumor spheroids was designed to identify active combinations of targeted small molecules and PI3K pathway inhibitors. Complex spheroids include a stromal component modeled by human endothelial cells (HUVEC) and fibroblasts modeled by human mesenchymal stem cells (MSCs). The concentration ranges selected for each drug and investigational agent were based upon clinically achievable concentrations if the clinical Cmax of the agent was known.
Compounds. The drugs and investigational agents: inavolisib (NSC800729), alpelisib (NSC765974), duvelisib (NSC772469), copanlisib (NSC816437), ipatasertib (NSC767898), afuresertib (NSC778305), talazoparib (NSC767125), sapanisertib (NSC764658), selumetinib (NSC741078), tovorafenib (DAY101, NSC766906), vemurafenib (NSC761431), ravoxertinib (NSC781343), sotorasib (NSC818433), MRTX1133 (NSC 836407), abemaciclib (NSC 768073), palbociclib (NSC758247), venetoclax (NSC 766270), SY5609 (NSC837396), enzalutamide (NSC755605), and darolutamide (NSC825331), were obtained from the National Cancer Institute (NCI) Developmental Therapeutics Program Chemical Repository. The FDA-approved anticancer drug set is available from the NCI Developmental Therapeutics Program. […] The stock solutions were prepared in dimethyl sulfoxide (DMSO, Sigma-Aldrich, St. Louis, MO, cat. D2650) at 800-fold the tested concentration and stored at -70 degrees C prior to their use. All drugs and investigational agents were tested over a range starting from a high concentration at or near the clinical Cmax and decreasing in half-log increments. If the clinical Cmax for an agent had not been determined, the highest concentration tested was 10 microM.
Cell Culture. All cells were maintained in an incubator at 37 degrees C and 5% CO2 with 95% humidity. The PDC lines were cultured according to standard operating procedures established by the NCI PDMR (https://pdmr.cancer.gov/sops/default.htm). All PDCs were thawed and cultured in Matrigel-coated flasks prepared with a working solution of 1X Ham's F-12 nutrient mix, without supplementation (Invitrogen, Waltham, MA, cat. 11765054), 100 U/mL penicillin-streptomycin (Invitrogen, cat. 15140122), and 2.5% Matrigel (Corning Inc., Corning, NY, cat. 354248) for the first three passages. The 354836-022-R-J1-PDC, 475296-252-R-J1-PDC, and 997726-040-R-J2-PDC lines were cultured in 6A media, which includes advanced DMEM/F-12 (Thermo Fisher Scientific, cat. 12634028), 10 mM HEPES (Thermo Fisher Scientific, cat. 15630080), 1X GlutaMAX supplement (Thermo Fisher Scientific, cat. 35050061), 0.1 mg/mL primocin (InvivoGen, San Diego, CA, cat. ant-pm-2), 10% defined fetal bovine serum, heat inactivated (HyClone Laboratories Inc., Logan, UT, cat. SH30070.03HI), 50% L-WRN conditioned media (ATCC, cat. CRL-3276), 1.25 mM N-Acetyl-L-cysteine (Sigma-Aldrich, cat. A9165), 10 mM nicotinamide (Sigma-Aldrich, cat. N0636), 1X B-27 supplement (Thermo Fisher Scientific, cat. 17504044), 1X N-2 supplement (Thermo Fisher Scientific, cat. 17502048), and 10 microM Y-27632 dihydrochloride (Tocris Bioscience, Bristol, United Kingdom, cat. 1254). The 624824-186-R-J2-PDC line was cultured in 6C/Colon 1B media, which includes all 6A media components plus 50 ng/mL human EGF recombinant protein (Thermo Fisher Scientific, cat. PHG0311). […]
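Further: spheroids exposed to compounds for seven days before reading.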

With CCCS(=O)(=O)Nc1ccc(F)c(C(=O)c2c[nH]c3ncc(-c4ccc(Cl)cc4)cc23)c1F + CC(Nc1ccc2c(c1)OCCn1cc(N3C(=O)OCC3C(F)F)nc1-2)C(N)=O as the compound, how does the IC50 (second compound 0.00316 µM) read?
Its IC50 is greater than 10 µM.

And the IC50 (second compound 0.01 µM)?
Its IC50 is 4.28 µM.

What about the IC50 (second compound 0.0316 µM) of the same compound?
Its IC50 is 5.45 µM.

And the IC50 (second compound 0.1 µM)?
The IC50 was 6.98 µM.

What about the IC50 (second compound 0.316 µM) of the same compound?
Its IC50 is 5.9 µM.

And the IC50 (second compound 1 µM)?
Its IC50 is 5.88 µM.

And the viability, T/C (second compound 0.00316 µM, first compound 0.0316 µM)?
The viability, T/C was 115%.

What about the viability, T/C (second compound 0.00316 µM, first compound 0.1 µM) of the same compound?
Its viability, T/C is 115%.

And the viability, T/C (second compound 0.00316 µM, first compound 0.316 µM)?
Its viability, T/C is 113%.

And the viability, T/C (second compound 0.00316 µM, first compound 1 µM)?
Its viability, T/C is 97.1%.

What about the viability, T/C (second compound 0.00316 µM, first compound 3.16 µM) of the same compound?
Its viability, T/C is 74.7%.

What about the viability, T/C (second compound 0.00316 µM, first compound 10 µM) of the same compound?
The viability, T/C was 53.6%.

What about the viability, T/C (second compound 0.01 µM, first compound 0.0316 µM) of the same compound?
The viability, T/C was 113%.

And the viability, T/C (second compound 0.01 µM, first compound 0.1 µM)?
Its viability, T/C is 115%.

And the viability, T/C (second compound 0.01 µM, first compound 0.316 µM)?
The viability, T/C was 105%.

And the viability, T/C (second compound 0.01 µM, first compound 1 µM)?
The viability, T/C was 77.1%.

And the viability, T/C (second compound 0.01 µM, first compound 3.16 µM)?
The viability, T/C was 74.8%.

And the viability, T/C (second compound 0.01 µM, first compound 10 µM)?
Its viability, T/C is 7.68%.

What about the viability, T/C (second compound 0.0316 µM, first compound 0.0316 µM) of the same compound?
Its viability, T/C is 103%.

And the viability, T/C (second compound 0.0316 µM, first compound 0.1 µM)?
Its viability, T/C is 98.8%.

And the viability, T/C (second compound 0.0316 µM, first compound 0.316 µM)?
Its viability, T/C is 98.8%.

And the viability, T/C (second compound 0.0316 µM, first compound 1 µM)?
Its viability, T/C is 92.1%.

What about the viability, T/C (second compound 0.0316 µM, first compound 3.16 µM) of the same compound?
Its viability, T/C is 89.2%.

And the viability, T/C (second compound 0.0316 µM, first compound 10 µM)?
Its viability, T/C is 6.32%.

What about the viability, T/C (second compound 0.1 µM, first compound 0.0316 µM) of the same compound?
Its viability, T/C is 92.3%.

What about the viability, T/C (second compound 0.1 µM, first compound 0.1 µM) of the same compound?
Its viability, T/C is 109%.

And the viability, T/C (second compound 0.1 µM, first compound 0.316 µM)?
The viability, T/C was 107%.

What about the viability, T/C (second compound 0.1 µM, first compound 1 µM) of the same compound?
Its viability, T/C is 92.8%.

And the viability, T/C (second compound 0.1 µM, first compound 3.16 µM)?
The viability, T/C was 90.2%.

What about the viability, T/C (second compound 0.1 µM, first compound 10 µM) of the same compound?
Its viability, T/C is 32.3%.

What about the viability, T/C (second compound 0.316 µM, first compound 0.0316 µM) of the same compound?
Its viability, T/C is 83.4%.

What about the viability, T/C (second compound 0.316 µM, first compound 0.1 µM) of the same compound?
The viability, T/C was 88.8%.

And the viability, T/C (second compound 0.316 µM, first compound 0.316 µM)?
Its viability, T/C is 85.3%.

And the viability, T/C (second compound 0.316 µM, first compound 1 µM)?
Its viability, T/C is 85.8%.

What about the viability, T/C (second compound 0.316 µM, first compound 3.16 µM) of the same compound?
The viability, T/C was 78.1%.

What about the viability, T/C (second compound 0.316 µM, first compound 10 µM) of the same compound?
Its viability, T/C is 26.1%.

What about the viability, T/C (second compound 1 µM, first compound 0.0316 µM) of the same compound?
The viability, T/C was 78.2%.

And the viability, T/C (second compound 1 µM, first compound 0.1 µM)?
Its viability, T/C is 81%.

And the viability, T/C (second compound 1 µM, first compound 0.316 µM)?
Its viability, T/C is 77.4%.

What about the viability, T/C (second compound 1 µM, first compound 1 µM) of the same compound?
Its viability, T/C is 87.9%.

And the viability, T/C (second compound 1 µM, first compound 3.16 µM)?
Its viability, T/C is 80.3%.

What about the viability, T/C (second compound 1 µM, first compound 10 µM) of the same compound?
Its viability, T/C is 24%.
